Tested on: participants with cocaine use disorder
Assay: Medical safety session: subjective effects questionnaires after intranasal cocaine
Assay type: in vivo, human
Procedure: Participants completed one, single-blind medical safety session to ensure they could tolerate intranasal cocaine. Intranasal cocaine doses (i.e., 0 [placebo], 10, 20, 40 and 80 mg) were administered in ascending order. Placebo (i.e., 0 mg) was administered at 0900 hours. The subjective-effect questionnaires and cardiovascular measures described below were completed 30 minutes before placebo administration (i.e., 0830 hours), immediately following and at 15-minute intervals for 45 minutes. Subsequent cocaine administrations were separated by 45 minutes.

[1] = Cocaine 40 mg, Topiramate (0 mg/day) group
[2] = Cocaine 40 mg, Topiramate (50 mg/day) group
[3] = Cocaine 40 mg, Topiramate (100 mg/day) group
[4] = Cocaine 80 mg, Topiramate (0 mg/day) group
[5] = Cocaine 80 mg, Topiramate (50 mg/day) group
[6] = Cocaine 80 mg, Topiramate (100 mg/day) group

Structure (SMILES): COC(=O)[C@H]1[C@@H](OC(=O)c2ccccc2)C[C@@H]2CC[C@H]1N2C [Cocaine, cocaine]
- Adjective Rating Scales Sedative, mean peak effect [1]: 3.2
- Adjective Rating Scales Stimulant, mean peak effect [1]: 0.0
- Drug-Effect Questionnaire Active-Alert-Energetic, mean peak effect [1]: 26.0
- Drug-Effect Questionnaire Any Effect, mean peak effect [1]: 33.3
- Drug-Effect Questionnaire Bad Effects, mean peak effect [1]: 9.0
- Drug-Effect Questionnaire Euphoric, mean peak effect [1]: 10.6
- Drug-Effect Questionnaire Good Effects, mean peak effect [1]: 33.9
- Drug-Effect Questionnaire High, mean peak effect [1]: 29.5
- Drug-Effect Questionnaire Irregular Heart Beat, mean peak effect [1]: 7.4
- Drug-Effect Questionnaire Like Drug, mean peak effect [1]: 36.1
- Drug-Effect Questionnaire Nausea-Queasy-Sick, mean peak effect [1]: 3.2
- Drug-Effect Questionnaire Nervous-Anxious, mean peak effect [1]: 10.1
- Drug-Effect Questionnaire Performance Impaired, mean peak effect [1]: 10.7
- Drug-Effect Questionnaire Performance Improved, mean peak effect [1]: 10.7
- Drug-Effect Questionnaire Restless, mean peak effect [1]: 10.4
- Drug-Effect Questionnaire Rush, mean peak effect [1]: 28.1
- Drug-Effect Questionnaire Shaky-Jittery, mean peak effect [1]: 9.7
- Drug-Effect Questionnaire Sluggish-Fatigued-Lazy, mean peak effect [1]: 9.0
- Drug-Effect Questionnaire Stimulated, mean peak effect [1]: 21.1
- Drug-Effect Questionnaire Talkative-Friendly, mean peak effect [1]: 16.7
- Drug-Effect Questionnaire Willing to Pay For, mean peak effect [1]: 32.8
- Drug-Effect Questionnaire Willing to Take Again, mean peak effect [1]: 40.6
- Adjective Rating Scales Sedative, mean peak effect [2]: 2.1
- Adjective Rating Scales Stimulant, mean peak effect [2]: 10.1
- Drug-Effect Questionnaire Active-Alert-Energetic, mean peak effect [2]: 24.7
- Drug-Effect Questionnaire Any Effect, mean peak effect [2]: 19.3
- Drug-Effect Questionnaire Bad Effects, mean peak effect [2]: 7.2
- Drug-Effect Questionnaire Euphoric, mean peak effect [2]: 6.2
- Drug-Effect Questionnaire Good Effects, mean peak effect [2]: 17.0
- Drug-Effect Questionnaire High, mean peak effect [2]: 29.9
- Drug-Effect Questionnaire Irregular Heart Beat, mean peak effect [2]: 6.0
- Drug-Effect Questionnaire Like Drug, mean peak effect [2]: 16.7
- Drug-Effect Questionnaire Nausea-Queasy-Sick, mean peak effect [2]: 9.8
- Drug-Effect Questionnaire Nervous-Anxious, mean peak effect [2]: 1.8
- Drug-Effect Questionnaire Performance Impaired, mean peak effect [2]: 1.9
- Drug-Effect Questionnaire Performance Improved, mean peak effect [2]: 10.6
- Drug-Effect Questionnaire Restless, mean peak effect [2]: 2.9
- Drug-Effect Questionnaire Rush, mean peak effect [2]: 30.0
- Drug-Effect Questionnaire Shaky-Jittery, mean peak effect [2]: 2.8
- Drug-Effect Questionnaire Sluggish-Fatigued-Lazy, mean peak effect [2]: 0.1
- Drug-Effect Questionnaire Stimulated, mean peak effect [2]: 22.3
- Drug-Effect Questionnaire Talkative-Friendly, mean peak effect [2]: 13.6
- Drug-Effect Questionnaire Willing to Pay For, mean peak effect [2]: 17.0
- Drug-Effect Questionnaire Willing to Take Again, mean peak effect [2]: 17.4
- Adjective Rating Scales Sedative, mean peak effect [3]: 5.1
- Adjective Rating Scales Stimulant, mean peak effect [3]: 11.8
- Drug-Effect Questionnaire Active-Alert-Energetic, mean peak effect [3]: 13.8
- Drug-Effect Questionnaire Any Effect, mean peak effect [3]: 22.1
- Drug-Effect Questionnaire Bad Effects, mean peak effect [3]: 3.0
- Drug-Effect Questionnaire Euphoric, mean peak effect [3]: 6.7
- Drug-Effect Questionnaire Good Effects, mean peak effect [3]: 24.0
- Drug-Effect Questionnaire High, mean peak effect [3]: 23.6
- Drug-Effect Questionnaire Irregular Heart Beat, mean peak effect [3]: 9.0
- Drug-Effect Questionnaire Like Drug, mean peak effect [3]: 20.8
- Drug-Effect Questionnaire Nausea-Queasy-Sick, mean peak effect [3]: 16.2
- Drug-Effect Questionnaire Nervous-Anxious, mean peak effect [3]: 8.1
- Drug-Effect Questionnaire Performance Impaired, mean peak effect [3]: 4.1
- Drug-Effect Questionnaire Performance Improved, mean peak effect [3]: 5.0
- Drug-Effect Questionnaire Restless, mean peak effect [3]: 9.1
- Drug-Effect Questionnaire Rush, mean peak effect [3]: 20.1
- Drug-Effect Questionnaire Shaky-Jittery, mean peak effect [3]: 8.7
- Drug-Effect Questionnaire Sluggish-Fatigued-Lazy, mean peak effect [3]: 9.1
- Drug-Effect Questionnaire Stimulated, mean peak effect [3]: 16.5
- Drug-Effect Questionnaire Talkative-Friendly, mean peak effect [3]: 13.2
- Drug-Effect Questionnaire Willing to Pay For, mean peak effect [3]: 15.0
- Drug-Effect Questionnaire Willing to Take Again, mean peak effect [3]: 16.4
- Adjective Rating Scales Sedative, mean peak effect [4]: 4.1
- Adjective Rating Scales Stimulant, mean peak effect [4]: 8.5
- Drug-Effect Questionnaire Active-Alert-Energetic, mean peak effect [4]: 25.6
- Drug-Effect Questionnaire Any Effect, mean peak effect [4]: 39.1
- Drug-Effect Questionnaire Bad Effects, mean peak effect [4]: 8.2
- Drug-Effect Questionnaire Euphoric, mean peak effect [4]: 10.5
- Drug-Effect Questionnaire Good Effects, mean peak effect [4]: 33.3
- Drug-Effect Questionnaire High, mean peak effect [4]: 27.7
- Drug-Effect Questionnaire Irregular Heart Beat, mean peak effect [4]: 14.4
- Drug-Effect Questionnaire Like Drug, mean peak effect [4]: 34.6
- Drug-Effect Questionnaire Nausea-Queasy-Sick, mean peak effect [4]: 8.8
- Drug-Effect Questionnaire Nervous-Anxious, mean peak effect [4]: 12.1
- Drug-Effect Questionnaire Performance Impaired, mean peak effect [4]: 10.5
- Drug-Effect Questionnaire Performance Improved, mean peak effect [4]: 11.5
- Drug-Effect Questionnaire Restless, mean peak effect [4]: 10.1
- Drug-Effect Questionnaire Rush, mean peak effect [4]: 27.3
- Drug-Effect Questionnaire Shaky-Jittery, mean peak effect [4]: 13.8
- Drug-Effect Questionnaire Sluggish-Fatigued-Lazy, mean peak effect [4]: 5.7
- Drug-Effect Questionnaire Stimulated, mean peak effect [4]: 21.1
- Drug-Effect Questionnaire Talkative-Friendly, mean peak effect [4]: 17.9
- Drug-Effect Questionnaire Willing to Pay For, mean peak effect [4]: 30.5
- Drug-Effect Questionnaire Willing to Take Again, mean peak effect [4]: 38.4
- Adjective Rating Scales Sedative, mean peak effect [5]: 2.4
- Adjective Rating Scales Stimulant, mean peak effect [5]: 13.2
- Drug-Effect Questionnaire Active-Alert-Energetic, mean peak effect [5]: 31.4
- Drug-Effect Questionnaire Any Effect, mean peak effect [5]: 29.6
- Drug-Effect Questionnaire Bad Effects, mean peak effect [5]: 10.4
- Drug-Effect Questionnaire Euphoric, mean peak effect [5]: 14.7
- Drug-Effect Questionnaire Good Effects, mean peak effect [5]: 24.0
- Drug-Effect Questionnaire High, mean peak effect [5]: 31.8
- Drug-Effect Questionnaire Irregular Heart Beat, mean peak effect [5]: 0.8
- Drug-Effect Questionnaire Like Drug, mean peak effect [5]: 28.4
- Drug-Effect Questionnaire Nausea-Queasy-Sick, mean peak effect [5]: 1.2
- Drug-Effect Questionnaire Nervous-Anxious, mean peak effect [5]: 2.2
- Drug-Effect Questionnaire Performance Impaired, mean peak effect [5]: 1.9
- Drug-Effect Questionnaire Performance Improved, mean peak effect [5]: 11.2
- Drug-Effect Questionnaire Restless, mean peak effect [5]: 7.8
- Drug-Effect Questionnaire Rush, mean peak effect [5]: 28.4
- Drug-Effect Questionnaire Shaky-Jittery, mean peak effect [5]: 4.8
- Drug-Effect Questionnaire Sluggish-Fatigued-Lazy, mean peak effect [5]: 0.0
- Drug-Effect Questionnaire Stimulated, mean peak effect [5]: 31.8
- Drug-Effect Questionnaire Talkative-Friendly, mean peak effect [5]: 14.3
- Drug-Effect Questionnaire Willing to Pay For, mean peak effect [5]: 30.6
- Drug-Effect Questionnaire Willing to Take Again, mean peak effect [5]: 30.3
- Adjective Rating Scales Sedative, mean peak effect [6]: 7.8
- Adjective Rating Scales Stimulant, mean peak effect [6]: 15.7
- Drug-Effect Questionnaire Active-Alert-Energetic, mean peak effect [6]: 24.5
- Drug-Effect Questionnaire Any Effect, mean peak effect [6]: 39.5
- Drug-Effect Questionnaire Bad Effects, mean peak effect [6]: 12.2
- Drug-Effect Questionnaire Euphoric, mean peak effect [6]: 16.2
- Drug-Effect Questionnaire Good Effects, mean peak effect [6]: 27.9
- Drug-Effect Questionnaire High, mean peak effect [6]: 42.0
- Drug-Effect Questionnaire Irregular Heart Beat, mean peak effect [6]: 24.1
- Drug-Effect Questionnaire Like Drug, mean peak effect [6]: 32.4
- Drug-Effect Questionnaire Nausea-Queasy-Sick, mean peak effect [6]: 20.5
- Drug-Effect Questionnaire Nervous-Anxious, mean peak effect [6]: 22.9
- Drug-Effect Questionnaire Performance Impaired, mean peak effect [6]: 12.9
- Drug-Effect Questionnaire Performance Improved, mean peak effect [6]: 9.5
- Drug-Effect Questionnaire Restless, mean peak effect [6]: 11.1
- Drug-Effect Questionnaire Rush, mean peak effect [6]: 36.1
- Drug-Effect Questionnaire Shaky-Jittery, mean peak effect [6]: 22.1
- Drug-Effect Questionnaire Sluggish-Fatigued-Lazy, mean peak effect [6]: 22.0
- Drug-Effect Questionnaire Stimulated, mean peak effect [6]: 31.1
- Drug-Effect Questionnaire Talkative-Friendly, mean peak effect [6]: 16.1
- Drug-Effect Questionnaire Willing to Pay For, mean peak effect [6]: 21.0
- Drug-Effect Questionnaire Willing to Take Again, mean peak effect [6]: 33.6
